According to ChEMBL document CHEMBL5465560, “Selectivity Literature for EUbOPEN Chemogenomic Library” (2024):

Columns and labels:
[1] = target: T1, Mitogen-activated protein kinase kinase kinase 7 (Homo sapiens) (UniProt O43318); assay: Selectivity interaction (KinomeScan (DiscoverX)) EUB0001079a MAP3K7; details: at 1 µM
T1 sequence (whole entry): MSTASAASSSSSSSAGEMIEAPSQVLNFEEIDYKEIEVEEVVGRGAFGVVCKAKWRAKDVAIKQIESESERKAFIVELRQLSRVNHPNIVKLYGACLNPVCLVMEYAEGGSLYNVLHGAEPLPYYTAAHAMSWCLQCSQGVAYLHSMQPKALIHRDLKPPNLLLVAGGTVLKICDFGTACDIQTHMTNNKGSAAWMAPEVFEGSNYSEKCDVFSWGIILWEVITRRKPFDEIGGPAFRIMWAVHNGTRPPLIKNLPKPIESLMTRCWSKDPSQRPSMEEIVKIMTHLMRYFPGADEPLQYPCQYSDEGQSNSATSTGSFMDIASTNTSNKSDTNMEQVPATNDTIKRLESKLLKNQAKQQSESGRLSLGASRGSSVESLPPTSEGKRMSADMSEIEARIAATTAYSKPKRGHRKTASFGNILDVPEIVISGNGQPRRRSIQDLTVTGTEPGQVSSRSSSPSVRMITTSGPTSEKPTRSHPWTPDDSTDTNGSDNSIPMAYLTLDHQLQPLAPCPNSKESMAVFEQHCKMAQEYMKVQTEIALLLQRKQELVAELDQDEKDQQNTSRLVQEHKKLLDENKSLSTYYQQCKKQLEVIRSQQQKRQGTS

[2] = target: Bone morphogenetic protein receptor type-1A (Homo sapiens, UniProt P36894); assay: Selectivity interaction (KinomeScan (DiscoverX)) EUB0000092b BMPR1A; details: at 10 µM
[3] = target: Proto-oncogene tyrosine-protein kinase ROS (Homo sapiens) (UniProt P08922); assay: Selectivity interaction (Ambit KINOMEscan and KiNATiv profiling in Jurkat cells) EUB0000090b ROS1; type: cell-based; details: at 1 µM
Sequence of Proto-oncogene tyrosine-protein kinase ROS (Homo sapiens) (P08922 whole entry): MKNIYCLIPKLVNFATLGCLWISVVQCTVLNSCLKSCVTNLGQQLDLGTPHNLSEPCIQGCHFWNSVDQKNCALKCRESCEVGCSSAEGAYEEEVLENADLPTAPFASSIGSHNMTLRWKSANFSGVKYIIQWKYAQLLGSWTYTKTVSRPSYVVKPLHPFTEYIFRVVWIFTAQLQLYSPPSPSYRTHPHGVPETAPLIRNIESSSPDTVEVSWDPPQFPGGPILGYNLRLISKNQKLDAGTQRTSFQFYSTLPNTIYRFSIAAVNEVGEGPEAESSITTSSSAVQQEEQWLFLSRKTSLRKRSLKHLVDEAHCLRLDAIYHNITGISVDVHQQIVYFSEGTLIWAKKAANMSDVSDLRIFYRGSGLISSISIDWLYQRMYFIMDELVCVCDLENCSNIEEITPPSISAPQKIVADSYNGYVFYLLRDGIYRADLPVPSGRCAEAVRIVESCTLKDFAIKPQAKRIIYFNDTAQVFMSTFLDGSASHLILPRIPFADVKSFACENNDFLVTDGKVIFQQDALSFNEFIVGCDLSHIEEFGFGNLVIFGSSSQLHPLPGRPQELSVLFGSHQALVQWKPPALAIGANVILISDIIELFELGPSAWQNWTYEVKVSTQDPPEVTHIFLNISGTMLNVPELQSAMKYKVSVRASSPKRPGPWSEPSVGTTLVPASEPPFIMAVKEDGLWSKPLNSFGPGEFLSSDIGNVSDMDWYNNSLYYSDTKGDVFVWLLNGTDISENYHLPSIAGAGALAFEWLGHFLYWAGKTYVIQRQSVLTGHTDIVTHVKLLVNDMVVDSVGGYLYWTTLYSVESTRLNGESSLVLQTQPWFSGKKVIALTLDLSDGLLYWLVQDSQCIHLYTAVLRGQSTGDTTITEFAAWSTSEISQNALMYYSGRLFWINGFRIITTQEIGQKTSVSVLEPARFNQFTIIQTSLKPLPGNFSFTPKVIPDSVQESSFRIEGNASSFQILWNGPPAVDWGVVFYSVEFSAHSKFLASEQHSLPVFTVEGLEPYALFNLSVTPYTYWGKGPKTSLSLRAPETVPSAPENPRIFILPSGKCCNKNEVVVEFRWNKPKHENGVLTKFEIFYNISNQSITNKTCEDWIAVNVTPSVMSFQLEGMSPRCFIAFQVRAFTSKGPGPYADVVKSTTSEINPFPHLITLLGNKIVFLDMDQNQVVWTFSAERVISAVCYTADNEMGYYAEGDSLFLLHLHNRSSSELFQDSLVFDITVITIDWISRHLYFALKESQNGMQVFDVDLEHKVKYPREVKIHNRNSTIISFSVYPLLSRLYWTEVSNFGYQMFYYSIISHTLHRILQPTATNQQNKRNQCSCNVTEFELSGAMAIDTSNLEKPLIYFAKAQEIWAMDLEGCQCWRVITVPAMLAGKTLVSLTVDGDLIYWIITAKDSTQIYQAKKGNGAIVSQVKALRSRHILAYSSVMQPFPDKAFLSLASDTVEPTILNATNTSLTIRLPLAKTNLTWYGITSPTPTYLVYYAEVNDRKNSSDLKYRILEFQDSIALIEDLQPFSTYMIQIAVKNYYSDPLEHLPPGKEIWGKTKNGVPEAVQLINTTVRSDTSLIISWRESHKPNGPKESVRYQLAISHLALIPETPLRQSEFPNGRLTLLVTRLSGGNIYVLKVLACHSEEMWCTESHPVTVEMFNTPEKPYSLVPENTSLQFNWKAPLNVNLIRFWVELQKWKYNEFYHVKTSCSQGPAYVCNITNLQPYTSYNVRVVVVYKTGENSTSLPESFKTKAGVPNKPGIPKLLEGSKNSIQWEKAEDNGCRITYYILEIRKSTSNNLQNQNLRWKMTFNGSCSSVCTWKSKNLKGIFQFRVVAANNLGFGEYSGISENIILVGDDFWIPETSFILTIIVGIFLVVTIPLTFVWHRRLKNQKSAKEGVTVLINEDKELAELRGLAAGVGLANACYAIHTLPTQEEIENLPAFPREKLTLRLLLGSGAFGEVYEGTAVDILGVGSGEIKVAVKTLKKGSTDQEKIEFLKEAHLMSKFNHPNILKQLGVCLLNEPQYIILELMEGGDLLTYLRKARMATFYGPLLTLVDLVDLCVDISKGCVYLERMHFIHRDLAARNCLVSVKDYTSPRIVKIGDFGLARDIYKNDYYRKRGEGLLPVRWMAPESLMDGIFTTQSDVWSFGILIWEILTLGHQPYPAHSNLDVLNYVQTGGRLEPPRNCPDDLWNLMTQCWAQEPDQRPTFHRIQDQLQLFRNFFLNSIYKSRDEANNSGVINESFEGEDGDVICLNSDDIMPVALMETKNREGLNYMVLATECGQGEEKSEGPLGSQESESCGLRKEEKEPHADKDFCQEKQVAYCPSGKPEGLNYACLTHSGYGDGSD

[4] = target: T2, Dual specificity mitogen-activated protein kinase kinase 4 (Homo sapiens) (UniProt P45985); assay: Selectivity interaction (Ambit KINOMEscan and KiNATiv profiling in Jurkat cells) EUB0000090b MAP2K4; type: cell-based; details: at 1 µM
T2 sequence (whole entry): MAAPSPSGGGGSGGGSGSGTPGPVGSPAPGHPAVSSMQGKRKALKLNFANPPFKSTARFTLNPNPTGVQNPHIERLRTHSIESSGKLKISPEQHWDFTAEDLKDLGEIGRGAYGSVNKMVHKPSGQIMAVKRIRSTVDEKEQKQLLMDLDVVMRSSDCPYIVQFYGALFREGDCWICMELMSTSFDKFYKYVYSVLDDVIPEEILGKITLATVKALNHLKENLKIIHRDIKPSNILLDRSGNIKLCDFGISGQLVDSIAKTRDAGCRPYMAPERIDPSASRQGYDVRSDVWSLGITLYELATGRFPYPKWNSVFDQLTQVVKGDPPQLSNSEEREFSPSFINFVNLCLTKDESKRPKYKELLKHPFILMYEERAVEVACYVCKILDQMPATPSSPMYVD

[5] = target: T3, Mitogen-activated protein kinase kinase kinase 12 (Homo sapiens) (UniProt Q12852); assay: Selectivity interaction (KinomeScan (DiscoverX)) EUB0000618a MAP3K12; details: at 10 µM
T3 sequence (whole entry): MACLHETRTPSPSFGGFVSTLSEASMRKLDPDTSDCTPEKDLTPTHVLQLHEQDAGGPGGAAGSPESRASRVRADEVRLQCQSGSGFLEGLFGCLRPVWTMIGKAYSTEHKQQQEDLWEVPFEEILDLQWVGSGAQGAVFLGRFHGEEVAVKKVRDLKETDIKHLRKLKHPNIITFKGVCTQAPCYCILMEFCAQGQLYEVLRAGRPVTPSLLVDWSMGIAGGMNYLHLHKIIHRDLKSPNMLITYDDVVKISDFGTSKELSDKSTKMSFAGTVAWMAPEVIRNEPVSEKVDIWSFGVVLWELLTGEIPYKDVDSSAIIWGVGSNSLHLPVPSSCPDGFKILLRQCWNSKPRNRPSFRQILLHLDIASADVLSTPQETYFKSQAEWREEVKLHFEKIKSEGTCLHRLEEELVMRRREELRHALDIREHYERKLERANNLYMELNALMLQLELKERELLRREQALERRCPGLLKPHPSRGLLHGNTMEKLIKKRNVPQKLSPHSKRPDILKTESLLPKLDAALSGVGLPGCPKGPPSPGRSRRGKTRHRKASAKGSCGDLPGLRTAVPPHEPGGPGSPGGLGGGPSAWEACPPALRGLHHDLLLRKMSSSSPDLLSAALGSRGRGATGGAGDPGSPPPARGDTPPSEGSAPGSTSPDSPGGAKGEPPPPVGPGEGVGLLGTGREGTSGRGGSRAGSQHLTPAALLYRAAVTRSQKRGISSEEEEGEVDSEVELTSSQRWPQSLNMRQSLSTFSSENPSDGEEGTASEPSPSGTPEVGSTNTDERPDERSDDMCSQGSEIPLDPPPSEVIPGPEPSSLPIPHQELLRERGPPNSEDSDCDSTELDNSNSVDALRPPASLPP

[6] = target: SRSF protein kinase 2 (Homo sapiens) (UniProt P78362); assay: Selectivity interaction (KinomeScan (DiscoverX)) EUB0000618a SRPK2; details: at 10 µM
Sequence of SRSF protein kinase 2 (Homo sapiens) (P78362 whole entry, looked up): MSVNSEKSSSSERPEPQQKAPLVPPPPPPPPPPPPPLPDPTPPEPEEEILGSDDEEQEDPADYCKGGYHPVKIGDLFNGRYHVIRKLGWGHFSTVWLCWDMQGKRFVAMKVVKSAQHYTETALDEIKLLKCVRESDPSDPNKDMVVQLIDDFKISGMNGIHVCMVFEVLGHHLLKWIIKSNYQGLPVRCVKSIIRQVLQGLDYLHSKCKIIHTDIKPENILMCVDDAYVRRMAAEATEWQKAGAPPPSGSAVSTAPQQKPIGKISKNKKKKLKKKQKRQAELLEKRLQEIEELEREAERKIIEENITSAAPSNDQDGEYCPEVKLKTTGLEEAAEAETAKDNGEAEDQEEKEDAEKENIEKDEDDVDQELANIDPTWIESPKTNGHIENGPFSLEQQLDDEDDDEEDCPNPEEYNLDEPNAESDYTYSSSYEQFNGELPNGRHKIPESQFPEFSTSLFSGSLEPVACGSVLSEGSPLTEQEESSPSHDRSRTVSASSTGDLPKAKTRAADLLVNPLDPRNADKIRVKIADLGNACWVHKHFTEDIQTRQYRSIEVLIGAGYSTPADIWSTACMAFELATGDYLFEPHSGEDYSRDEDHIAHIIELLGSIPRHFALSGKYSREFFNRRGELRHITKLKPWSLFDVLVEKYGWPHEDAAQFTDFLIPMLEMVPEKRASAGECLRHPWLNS

[7] = tested on: Tyrosine-protein kinase ABL1 (Homo sapiens), P00519 [F317L]; assay: Selectivity interaction (KinomeScan (DiscoverX)) EUB0000618a ABL1; details: at 10 µM
Sequence of Tyrosine-protein kinase ABL1 (Homo sapiens), P00519 [F317L] (P00519 whole entry F317L): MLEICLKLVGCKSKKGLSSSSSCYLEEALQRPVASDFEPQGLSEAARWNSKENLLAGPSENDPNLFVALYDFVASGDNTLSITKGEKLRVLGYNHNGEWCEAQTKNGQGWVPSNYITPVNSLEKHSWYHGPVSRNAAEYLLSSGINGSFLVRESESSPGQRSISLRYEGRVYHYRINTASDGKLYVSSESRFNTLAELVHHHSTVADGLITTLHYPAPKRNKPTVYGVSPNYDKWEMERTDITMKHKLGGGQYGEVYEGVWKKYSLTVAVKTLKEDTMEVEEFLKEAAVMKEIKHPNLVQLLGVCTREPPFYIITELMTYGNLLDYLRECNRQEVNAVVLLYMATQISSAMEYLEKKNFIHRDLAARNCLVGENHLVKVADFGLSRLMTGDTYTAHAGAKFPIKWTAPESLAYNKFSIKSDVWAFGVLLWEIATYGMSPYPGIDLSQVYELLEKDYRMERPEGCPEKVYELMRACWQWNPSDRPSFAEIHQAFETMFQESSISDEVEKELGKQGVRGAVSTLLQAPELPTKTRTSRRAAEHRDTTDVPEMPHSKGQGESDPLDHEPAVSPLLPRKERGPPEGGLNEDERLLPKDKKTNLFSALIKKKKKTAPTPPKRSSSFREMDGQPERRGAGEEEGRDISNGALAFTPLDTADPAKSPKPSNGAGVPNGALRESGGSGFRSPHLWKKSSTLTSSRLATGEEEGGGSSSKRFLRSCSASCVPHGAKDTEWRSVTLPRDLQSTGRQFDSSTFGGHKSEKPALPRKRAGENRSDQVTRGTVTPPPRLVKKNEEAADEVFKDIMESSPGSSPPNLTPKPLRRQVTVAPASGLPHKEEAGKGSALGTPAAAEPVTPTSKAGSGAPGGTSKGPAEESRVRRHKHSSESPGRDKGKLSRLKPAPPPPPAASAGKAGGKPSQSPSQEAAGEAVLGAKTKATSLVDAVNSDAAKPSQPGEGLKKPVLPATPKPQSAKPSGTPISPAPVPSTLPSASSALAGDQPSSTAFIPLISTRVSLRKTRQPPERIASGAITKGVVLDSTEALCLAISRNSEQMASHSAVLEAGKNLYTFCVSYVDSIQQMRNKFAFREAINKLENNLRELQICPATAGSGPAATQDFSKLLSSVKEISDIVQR

[8] = target: T4, Scaffold protein ILK (Homo sapiens) (UniProt Q13418); assay: Selectivity interaction (ActivX KiNativ screen (ex vivo kinase selectivity in human PBMCs)) EUB0001619a ILK; type: cell-based; details: PBMC, at 1 µM
T4 sequence (whole entry): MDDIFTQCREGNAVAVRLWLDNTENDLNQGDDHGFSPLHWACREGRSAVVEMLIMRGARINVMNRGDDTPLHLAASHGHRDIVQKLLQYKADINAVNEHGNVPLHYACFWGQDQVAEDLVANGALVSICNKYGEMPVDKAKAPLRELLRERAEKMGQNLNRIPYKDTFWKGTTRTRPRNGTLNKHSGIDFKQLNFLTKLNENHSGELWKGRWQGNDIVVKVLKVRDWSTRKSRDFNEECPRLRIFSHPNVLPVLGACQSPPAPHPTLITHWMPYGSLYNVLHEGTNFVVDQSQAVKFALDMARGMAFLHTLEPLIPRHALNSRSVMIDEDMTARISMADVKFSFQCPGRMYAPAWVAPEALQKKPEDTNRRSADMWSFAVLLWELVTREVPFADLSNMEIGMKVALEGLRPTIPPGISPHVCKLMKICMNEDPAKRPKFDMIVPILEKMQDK

[9] = target: Glycogen synthase kinase-3 alpha (Homo sapiens, UniProt P49840); assay: Selectivity interaction (KinomeScan (DiscoverX)) EUB0000655a GSK3A; details: at 10 µM
[10] = target: Tyrosine-protein kinase CSK (Homo sapiens) (UniProt P41240); assay: Selectivity interaction (KinomeScan (DiscoverX)) EUB0000607a CSK; details: at 10 µM
[11] = target: Serine/threonine-protein kinase PAK 6 (Homo sapiens) (UniProt Q9NQU5); assay: Selectivity interaction (Kinase panel (Z-LYTE Assay)) EUB0001632a PAK6; details: at 10 µM
Sequence of Serine/threonine-protein kinase PAK 6 (Homo sapiens) (Q9NQU5 whole entry, looked up): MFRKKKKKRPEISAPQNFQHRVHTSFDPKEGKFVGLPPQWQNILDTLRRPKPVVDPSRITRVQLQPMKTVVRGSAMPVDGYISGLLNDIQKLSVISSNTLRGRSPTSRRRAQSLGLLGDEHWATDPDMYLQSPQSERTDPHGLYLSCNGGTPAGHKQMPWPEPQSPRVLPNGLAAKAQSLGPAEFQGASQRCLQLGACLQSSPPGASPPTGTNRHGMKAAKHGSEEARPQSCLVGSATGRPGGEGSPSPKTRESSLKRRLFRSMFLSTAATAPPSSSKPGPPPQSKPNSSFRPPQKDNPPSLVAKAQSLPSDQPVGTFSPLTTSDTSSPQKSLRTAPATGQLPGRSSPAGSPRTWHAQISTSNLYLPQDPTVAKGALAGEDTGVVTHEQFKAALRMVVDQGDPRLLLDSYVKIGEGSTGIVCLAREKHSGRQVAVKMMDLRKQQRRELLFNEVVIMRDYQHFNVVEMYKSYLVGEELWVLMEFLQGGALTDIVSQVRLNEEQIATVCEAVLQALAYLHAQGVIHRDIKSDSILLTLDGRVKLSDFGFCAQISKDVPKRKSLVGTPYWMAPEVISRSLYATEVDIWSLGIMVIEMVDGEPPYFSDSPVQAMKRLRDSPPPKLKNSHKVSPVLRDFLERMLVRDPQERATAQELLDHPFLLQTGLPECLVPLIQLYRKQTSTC

Compound: Nc1cnc(N2CCc3cc(S(=O)(=O)Nc4c(F)cc(Cl)cc4F)cc(N4CCCC4=O)c32)nc1 [TP-020n]
- % of control [1]: 100%

Compound: CCC(=O)N1CCN(c2ccc(-n3c(=O)ccc4cnc5ccc(-c6cnc7ccccc7c6)cc5c43)cc2C(F)(F)F)CC1
- % of control [2]: 45%

Compound: CN(C)C/C=C/C(=O)Nc1ccc(C(=O)N2CCCC(Nc3ncc(Cl)c(-c4c[nH]c5ccccc45)n3)C2)cc1 (stereo unspecified)
- % of control [3]: 85%
- % of control [4]: 70%

Compound: O[C@H]1CC[C@H](Nc2ncc3nc(Nc4c(F)cc(F)cc4F)n([C@H]4CCOC4)c3n2)CC1
- % of control [5]: 100%
- % of control [6]: 100%
- % of control [7]: 30%

Compound: N#Cc1cccc(-c2c[nH]c3ncnc(N4CCOCC4)c23)c1
- % of inhibition [8]: -12%

Compound: CN(C)CCOc1ccc(-c2nc(-c3ccncc3)c(-c3ccc4c(c3)CC/C4=N\O)[nH]2)cc1
- % of control [9]: 100%

Compound: CNC(=O)Nc1ccc(-c2nc(N3CC4CCC(C3)O4)c3cnn(C4CCC5(CC4)OCCO5)c3n2)cc1
- % of control [10]: 100%

Compound: Cn1cc(-n2cnc3c(NCc4nc5cc(Cl)c(Cl)cc5[nH]4)nc(N4CCOCC4)nc32)cn1
- % of control [11]: -5.74%
